Earlier results in patent US20200277251A1, “NOVEL ANTIBACTERIAL COMPOUNDS AND METHODS OF MAKING AND USING SAME” (BROWN UNIVERSITY, priority 2017, published 2020).

Test system: LT
Conditions: purified autolysin; cited from earlier work

CC1=N[C@@H]2[C@@H](O)[C@H](O)[C@@H](CO)O[C@@H]2S1 [NAG-thiazoline]
binding to LT: weak binder
